The subject of data set [1] is patients with acne vulgaris and/or acneiform scars. Nature of the data set: Clinical study of 5% lipoic acid cream applied to the face, assessed by a dermatologist. In kind it is in vivo, human. On the procedure:
The following examples are presented to further illustrate and explain the present invention and should not be taken as limiting in any regard. Unless otherwise indicated, all percentages are by weight. Lipoic acid was supplied by the Henkel Corporation and was placed into a lecithin-based oil-in-water cream at a level of 5% for use by acne patients. This composition was used in the studies unless otherwise indicated.
Eight patients with acne vulgaris and/or acneiform scars were evaluated and photographed at the beginning of the study. The patients were asked to cleanse their faces with Cetaphil™ lotion twice daily, and then to apply the test lipoic acid composition. Clinical evaluations were made every four weeks thereafter. Photographs were retaken at the end of twelve weeks, and five patients continued treatment for up to a year.
The following parameters were reported in clinical assessments by a dermatologist in the follow-up evaluations:
1. visibly apparent changes in erythema
2. visibly apparent changes in pore size

The next data set has as its system affected skin areas. Nature of the data set: Adverse side effects in clinical studies to date (topical application). It is filed as in vivo, human. The source says:
Generally in the practice of the method of the invention, the composition is topically applied to the affected skin areas in a predetermined or as-needed regimen either at intervals by application of a lotion or the like, it generally being the case that gradual improvements is noted with each successive application.

Data set [2] is described as follows: Skin penetration after topical application. It is filed as in vivo. The following applies: four hours after application to skin. The text has this:
While not wishing to be bound to any theory, it is possible that lipoic acid is efficacious in the treatment of acne because it is both fat- and water-soluble and readily disperses in cell membranes and other cellular components. […] Because of its solubility, it is sometimes referred to as a universal antioxidant. It acts as a free radical scavenger and neutralizer, and prevents the cross-linking of cell membranes that is often seen in acne in its post-inflammatory phases. By the same token, LA modulation of free radicals and other oxidative species affects gene expression, including expression of nuclear factor κ-B (NF-κB), nitric oxide synthetase and other mediators at all stages of proinflammation and inflammation. Lipoic acid's alteration of lipid peroxidation, protein cross-linking, growth factor stimulation, and membrane permeability may explain its negative effect on the symptoms of acne.

[3] abbreviates: 5% lipoic acid in lecithin-based oil-in-water cream, topical twice daily, one value per patient (Pt. #1-#8).

Where “and” joins values, the source holds several entries; their conditions need not be identical. Identical values can stand only once.

Regarding `O=C(O)CCCCC1CCSS1` (centres unmarked) [lipoic acid, 1,2-dithiolane-3-pentanoic acid], in data set [1] (5% cream, topical twice daily), the “improvement in two patients with severe atrophic acne scars” value amounted to 80% and the “improvement of atrophic scars, all patients with atrophic scars” value is on record as “improved”. In addition, in data set [1] (5% cream, within three to four weeks, benefits continued to increase over three to four months), the “change in pustules, papules, and comedones” value is “marked decrease”. Further, in data set [1] (setting [3]), the “Erythema % Improvement” value is 80% (3×) and 50% (5×); the “Pore Size % Improvement” value was 50% (3×) and 90% (5×); the “Scar Depth % Improvement” value is 50% (4×) and 80% (2×) and 70% (2×). In the data set with affected skin areas, the adverse side effects entry is listed as “no adverse side effects”. The “concentration in sebaceous gland tissue” value in data set [2] is “high concentrations”.

(Values after patent publication US6365623B1, “Treatment of acne using lipoic acid” (priority 1997, dated 2002).)
